Reference: paper PMC11173485, “Connecting GSK-3β Inhibitory Activity with IKK-β or ROCK-1 Inhibition to Target Tau Aggregation and Neuroinflammation in Alzheimer’s Disease—Discovery, In Vitro and In Cellulo Activity of Thiazole-Based Inhibitors” (Molecules, 2024)
Values after ≈ are worked out from the molar mass of the structure shown. Each block holds one compound with its values, some of them ahead of it.

Assays:
[1] = test system: okadaic acid treated HT-22 cells; test: Okadaic-acid-induced tau hyperphosphorylation cell model, cell viability; type: cell-based, mouse; conditions: okadaic acid 400 nM; for cell viability after okadaic acid (in words): 3 h, viability after 24 h; for activity in okadaic-acid-induced hyperphosphorylation assay (in words): 10, 1, and 0.1 µM
Description: We evaluated the neuroprotective properties of the selected compounds in an okadaic-acid-induced tau hyperphosphorylation cell model. Okadaic acid, acting as a phosphatase inhibitor, induces hyperphosphorylation and accumulation of neurofilaments in the cells, thereby mirroring the hyperphosphorylated, tau-induced neurodegeneration observed in AD brain [55, 56]. […] Compounds 50 and 58 were not active.
HT-22 cells were seeded into 96-well plates at a density of 2 × 10^4 cells per well. Okadaic acid (Merck) was added at a concentration of 400 nM and incubated for 3 h. After this time, 10, 1, and 0.1 µM of tested compounds were added and incubated in the aseptic conditions (37 °C, 5% CO2). Cell viability was determined using Presto Blue assay after 24 h. All data were normalized to the percentage survival of vehicle control. Data are represented as mean SD versus vehicle control.
(§1) Figure 4 (A) Results of the okadaic-acid-induced hyperphosphorylation assay. The HT-22 cells were pretreated for 3 h with okadaic acid (400 nM), and the tested compounds, at the increasing non-cytotoxic concentrations, were determined using a viability assay (or with the vehicle, 10 µM DMSO in the control sample). Cell viability was measured using the PrestoBlue^TM cell viability reagent. (B–D) Results of anti-inflammatory assays in LPS-treated (100 ng/mL) BV-2 cell line. The final compounds and references were tested at increasing non-cytotoxic concentrations and with DMSO as a control sample. NO release was measured using a fluorometric assay with 2,3-diaminonaphthalene (DAN). The IL-6 and TNF-α levels were measured using an LANCE Ultra TR-FRET Detection Kit (Perkin Elmer). Statistical analysis was performed using GraphPad Prism 9.0.0. All values are expressed as mean with SD. Differences among groups were evaluated using one-way ANOVA followed by post hoc analysis (Dunnett’s multiple comparison tests) and were considered statistically significant if p < 0.05 (* p < 0.05, ** p < 0.01, and **** p < 0.0001).

[2] = test system: NO release, LPS-treated BV-2 cells; test: NO release in LPS-treated BV-2 cells (DAN fluorometric assay); type: cell-based, mouse; conditions: LPS 100 ng/mL, 18 h
Excerpt: Lipopolysaccharide (LPS) is a potent pro-inflammatory stimulus triggering the extensive production of inflammatory mediators, including cytokines and chemokines. Consequently, it finds widespread application in inducing in vitro and in vivo models of sepsis and inflammation, including neuroinflammation. In this study, we employed LPS in the BV-2 cell line and assessed the impact of the selected compounds on the levels of NO, IL-6, and TNF-α production (Figure 4B–D). […] Moreover, all compounds surpassed the reference compound in these assays.
The cells were pretreated with tested compounds for 1 h. After this time, lipopolysaccharide (100 ng/mL) was added and the resulting mixture was incubated for 18 h. Next, the culture supernatant was acquired to measure the levels of nitric oxide (NO), IL-6, and TNF-α, according to the following procedures.
The NO level in the culture supernatants was measured using 2,3-diaminonaphthalene (DAN) reagent, according to the method of Nussler et al.. After 15 min of incubation at room temperature, the fluorescence intensity (EX 360; EM 440 nm) was measured using a microplate reader POLARstar Omega, (BMG Labtech). The values of nitric oxide were calculated as a percentage of control (maximal response of LPS).
as §1

[3] = Metabolic stability in mouse liver microsomes; type: in vitro ADME; conditions: % compound remaining after 15 min with mouse liver microsomes, NADPH
Description: Metabolic stability was assessed using pooled microsomes from the liver of male mice (CD-1) from Sigma-Aldrich (St. Louis, MO, USA). Incubations were carried out in 96-well plates. Potassium phosphate buffer (100 mM, pH 7.4, + 2 mM MgCl2) containing murine liver microsomes (0.5 mg protein/mL) was pre-incubated with test compounds or positive control (1 µM, 0.2% DMSO) at 37 °C for 15 min (N = 2). Reactions were initiated by adding NADPH (1 mM). The reactions were also incubated without NADPH to exclude non-NADPH metabolism. The reactions were terminated after 15 min via the addition of an acetonitrile quenching solution containing an internal standard (labetalol, 0.5 mM). The plates were centrifuged at 4000 rpm for 30 min at 4 °C, and an aliquot of supernatant was diluted with water before analysis via UPLC-MS/MS. The UPLC-MS/MS system consisted of a Waters Acquity Premier (Waters Corporation, Milford, MA, USA) coupled with a Waters Xevo TQ-S Cronos mass spectrometer (electrospray ionization mode ESI). […] Chromatograms were recorded using a Waters eλ PDA detector. Spectra were analyzed in the 200–700 nm range with 1.2 nm resolution and a sampling rate of 20 points/s. […]

[4] = Chemical stability assay in phosphate buffer pH 7.4; type: physicochemical; conditions: phosphate buffer pH 7.4, 37 °C, 120 min
Description: Before conducting the metabolic stability studies, we assessed the chemical stability of 62 and II in phosphate buffer at pH 7.4.
Quantitative HPLC analyses were acquired using Waters Alliance e2695 separations module (Waters, Milford, CT, USA), containing 2998 photodiode array (PDA), a detector (Waters, Milford, CT, USA), and a SpeedROD RP-18e 50–4.6 mm column (Merck, KGaA, Darmstadt, Germany). The temperature of the column was preserved at 30 °C. The experiment was conducted under the following conditions: a flow rate of 5 mL/min, eluent A (water/0.1% HCOOH), eluent B (MeCN/0.1% HCOOH), and a gradient starting from 0% of B to 100% of B for 3 min. Each sample was injected at a volume of 10 μL in triplicate, and the spectra were analyzed at the maximum wavelength. Potassium phosphate buffer (100 mM, pH 7.4, + 2 mM MgCl2) was incubated with the test compounds (1 µM, 0.2% DMSO) at 37 °C for 120 min (N = 2).

[5] = Thermodynamic solubility assay in DPBS; type: physicochemical; conditions: for solubility at 24 h: Dulbecco's phosphate-buffered saline (DPBS), 20 °C, aqueous buffer, thermodynamic from solid, thermodynamic, 24 h shaking at room temperature, read-out: Solubility (µg/mL) ± SD
Description: To address potential challenges related to poorly soluble compounds, such as variable and limited intestinal absorption, we conducted thermodynamic solubility studies.
Quantitative HPLC analyses were performed similarly to the chemical stability studies. A standard solution of the tested compound was prepared in methanol at a concentration of 2 mg/mL. The standard solution was diluted with methanol to obtain five solutions with different concentrations ranging from 0.06 to 0.1 mg/mL or 0.035 to 0.05 mg/mL (for II), and they were quantified via HPLC. The calibration curve was plotted using AUC against the concentration (mg/mL). Next, 2 mg of the tested compound was dissolved in 1 mL of Dulbecco’s phosphate-buffered saline (DPBS), and the mixture was constantly agitated at 20 °C for 24 h in a thermoshaker. After that time, the mixture was filtered through a cellulose acetate syringe filter (pore size 0.22 μm) and the solution was analyzed via HPLC. The solubility of the tested compounds was calculated using the calibration curves (mg/mL).

Compound: NC(=O)Nc1cc(-c2ccnc(NC(=O)C3CC3)c2)sc1C(N)=O [Compound 49, 5-(2-(Cyclopropanecarboxamido)pyridin-4-yl)-3-ureidothiophene-2-carboxamide]
cell viability after okadaic acid (in words) ([1]; 1 µM compound): increased cell viability
cell viability after okadaic acid (in words) ([1]; 10 µM compound): increased cell viability
NO level (in words) ([2]; 10 µM): significantly decreased

Compound: NC(=O)Nc1cc(-c2ccnc(NC(=O)C3CCC3)c2)sc1C(N)=O [Compound 50, 5-(2-(Cyclobutanecarboxamido)pyridin-4-yl)-3-ureidothiophene-2-carboxamide]
activity in okadaic-acid-induced hyperphosphorylation assay (in words) [1]: not active
NO level (in words) ([2]; 1 µM): reduced NO levels
NO level (in words) ([2]; 10 µM): significantly decreased

Compound: NC(=O)Nc1cc(-c2cccc(NC(=O)C3CC3)c2)sc1C(N)=O [Compound 58, 5-(3-(Cyclopropanecarboxamido)phenyl)-3-ureidothiophene-2-carboxamide]
activity in okadaic-acid-induced hyperphosphorylation assay (in words) [1]: not active

Compound: O=C1NC2(CCOC2)Nc2cc(-c3ccnc(NC(=O)C4CC4)c3)sc21 (centres unmarked) [Compound 62, N-(4-(4′-Oxo-3′,4,4′,5-tetrahydro-1′H,2H-spiro[furan-3,2′-thieno [3,2-d]pyrimidin]-6′-yl)pyridin-2-yl)cyclopropanecarboxamide]
cell viability after okadaic acid (in words) ([1]; 10 µM compound): increased cell viability
NO level (in words) ([2]; 1 µM): reduced NO levels
NO level (in words) ([2]; 10 µM): significantly decreased
MLM Stability (%) ± SD [3]: 100 ± 1%
chemical stability, % compound remaining relative to 0 min [4]: 100%
increase in solubility compared to reference compound II [5]: sixfold
solubility at 24 h [5]: 31 ± 1 µg/mL (≈ 83.7 µM)

MLM Stability (%) ± SD [3]: 100 ± 0%
chemical stability, % compound remaining relative to 0 min [4]: 100%
solubility at 24 h [5]: 5 ± 1 µg/mL (≈ 15.7 µM)
Compound: COc1nc(-c2ccnc(NC(=O)C3CC3)c2)sc1C(N)=O [II, reference compound]
